Assay results: PMC7822030, “Hybrid Inhibitors of DNA Gyrase A and B: Design, Synthesis and Evaluation” (Pharmaceutics, 2020)
Read-outs that look alike come from different tables or passages of the source.

What was measured:
[1] = system: E. coli MG1655 WT; experiment: MIC, E. coli MG1655 wild-type with PAβN; assay type: cell-based, Escherichia coli
Text: (§1) E. coli MG1655 originated from the laboratory collection of Dr. Csaba Pál. […] E. coli K-12 BW25113 single-gene knockout mutant lines ΔdapF, ΔmrcB, ΔsurA, ΔacrB and ΔtolC originated form the Keio collection copy owned by the laboratory of Dr. Csaba Pál.
(§2) Cation-adjusted Mueller Hinton II broth (MHBII) was used for growth of the bacteria under standard laboratory conditions, for antimicrobial susceptibility tests, and for selection of resistant variants. To prepare the MHBII broth, 22 g MHBII powder (containing 3 g beef extract, 17.5 g acid hydrolysate of casein, 1.5 g starch; Becton, Dickinson and Co., Franklin Lakes, NJ, USA) was dissolved in 1 L water. MHBII agar was prepared by addition of 14 g agar (Bacto; Molar Chemicals, Halásztelek, Hungary) to 1 L broth.
Minimum inhibitory concentrations (MICs) were determined using a standard serial broth microdilution technique, according to the Clinical and Laboratory Standards Institute guidelines. […] For Enterococcus sp., the cells were plated in BHI agar plates, and BHI broth was used to determine the MICs. […] Following the dilutions, each well was seeded with 5 × 10^4 bacterial cells. Each measurement was performed in three parallel replicates, and to avoid possible edge effects in the microwell plates, the outside rows (A, H) were filled with sterile medium. Following the inoculations, the plates were covered with the lids and wrapped in polyethylene plastic bags, to minimize evaporation but to allow O2 transfer. […] After incubation, the OD600 of each well was measured using a microplate reader (Synergy 2; Biotek, Winooski, VT, USA). […]

[2] = system: K. pneumoniae ATCC 10031; experiment: MIC broth microdilution, K. pneumoniae; assay type: cell-based; settings: Klebsiella pneumoniae, ATCC10031, read-out: MIC K. pneumoniae ATCC #
Text: as §1, §2
(§3) Minimum inhibitory concentrations (MICs) were determined using a standard serial broth microdilution technique, according to the Clinical and Laboratory Standards Institute guidelines. […] For Enterococcus sp., the cells were plated in BHI agar plates, and BHI broth was used to determine the MICs. […] Following the dilutions, each well was seeded with 5 × 10^4 bacterial cells. Each measurement was performed in three parallel replicates, and to avoid possible edge effects in the microwell plates, the outside rows (A, H) were filled with sterile medium. Following the inoculations, the plates were covered with the lids and wrapped in polyethylene plastic bags, to minimize evaporation but to allow O2 transfer. […] After incubation, the OD600 of each well was measured using a microplate reader (Synergy 2; Biotek, Winooski, VT, USA).

[3] = system: E. coli BW25113 ΔdapF; assay type: cell-based, Escherichia coli
Text: as §1, §2, §3

[4] = system: E. coli BW25113 ΔacrB; assay type: cell-based, Escherichia coli
Text: as §1, §2, §3

[5] = system: E. coli BW25113 ΔmrcB; assay type: cell-based, Escherichia coli
Text: as §1, §2, §3

[6] = system: E. coli BW25113 ΔtolC; assay type: cell-based, Escherichia coli
Text: as §1, §2, §3

[7] = system: E. coli BW25113 ΔsurA; assay type: cell-based, Escherichia coli
Text: as §1, §2, §3

[8] = system: E. coli BW25113 WT; experiment: MIC, E. coli BW25113 wild-type; assay type: cell-based; settings: Escherichia coli, BW25113, read-out: Minimum Inhibitory Concentration E. coli BW# WT
Text: as §1, §2, §3

[9] = molecular target: T1, E. coli DNA gyrase (Escherichia coli, UniProt P0AES4+P0AES6); experiment: E. coli DNA gyrase supercoiling assay; assay type: biochemical
T1 construct: purchased Inspiralis, Norwich, UK
Description: (§4) The assay for determination of the IC50 values was performed according to previously reported procedures.
(§5) Briefly, inhibitory activities were determined using supercoiling (for DNA gyrase) and relaxation (for topoisomerase IV) assay kits (Inspiralis, Norwich, UK) on streptavidin-coated 96-well microtiter plates from Thermo Scientific Pierce (Thermo Fisher Scientific, Waltham, MA, USA). First, the plates were rehydrated with Wash Buffer and the biotinylated oligonucleotide TFO1 was then immobilized. After washing off the unbound oligonucleotide with Wash Buffer, the enzyme assay was performed. Into each well was added 24 µL of mixture containing 6 µL of Assay Buffer (containing ATP), 0.75 µL of relaxed (for E. coli DNA gyrase supercoiling assay) or supercoiled (for E. coli topoisomerase IV relaxation assay) pNO1 plasmid and 17.25 µL of water. Additionally, 3 µL of a solution of the inhibitor in 10% DMSO containing 0.008% Tween 20 and 3 µL of enzyme (1.5 U) in Dilution Buffer were also added to the wells. […] The TF buffer was added to terminate the enzymatic reaction and after additional incubation for 30 min at room temperature, which allowed for triplex formation (biotin–oligonucleotide–plasmid), the unbound plasmid was washed off using TF buffer. Promega Diamond dye in T10 buffer was then added. […] Here, the compounds were diluted using 2-fold serial dilution steps of the given compound. GraphPad Prism 6.0 software was used to calculate the IC50 values, which were determined in at least two independent measurements, and their means are given as the final result. […] Dose-response curves can be found in Supplementary Materials.

[10] = system: A. baumannii ATCC 17978; experiment: MIC broth microdilution, A. baumannii; assay type: cell-based; settings: Acinetobacter baumannii, ATCC17978, read-out: MIC A. baumannii ATCC #
Text: as §1, §2, §3

[11] = system: P. aeruginosa ATCC 27863; experiment: MIC broth microdilution, P. aeruginosa; assay type: cell-based; settings: Pseudomonas aeruginosa
Text: as §1, §2, §3

[12] = system: E. cloacae spp. cloacae ATCC 13047; experiment: MIC broth microdilution, E. cloacae; assay type: cell-based, Enterobacter cloacae; settings: Enterobacter cloacae, ATCC13047, read-out: MIC E. cloacae spp. cloacae ATCC #
[13] = molecular target: T2, E. coli topoisomerase IV (Escherichia coli, UniProt P0AFI2+P20083); experiment: E. coli topoisomerase IV relaxation assay; assay type: biochemical
T2 construct: purchased Inspiralis, Norwich, UK
Description: as §4, §5

[14] = system: E. coli ATCC 25922; experiment: MIC broth microdilution, E. coli ATCC 25922; assay type: cell-based; settings: Escherichia coli, ATCC25922, read-out: MIC E. coli ATCC #
Text: as §1, §2, §3

[15] = system: E. coli MG1655 GyrB R136C; experiment: microbe, parasite or virus in culture; assay type: cell-based, Escherichia coli
Text: as §1, §2, §3
(§6) These mutated amino acids are the most common sites for target-based resistance in E. coli.

[16] = system: E. coli MG1655 GyrA S83L, D87N ParC S80I, E84G; experiment: microbe, parasite or virus in culture; assay type: cell-based, Escherichia coli
Text: as §1, §2, §3, §6

[17] = in the presence of 50 µg/mL PAβN
[18] = molar conversion in parentheses

With Cc1[nH]c(C(=O)Nc2nc3ccc(C(=O)NCC(=O)N4CCN(c5cc6c(cc5F)c(=O)c(C(=O)O)cn6C5CC5)CC4)cc3s2)c(Cl)c1Cl [Compound 7a, 1-Cyclopropyl-7-(4-((2-(3,4-dichloro-5-methyl-1H-pyrrole-2-carboxamido)benzo[d]thiazole-6-carbonyl)glycyl)piperazin-1-yl)-6-fluoro-4-oxo-1,4-dihydroquinoline-3-carboxylic acid] the MIC ([1]; Escherichia coli, MG1655, read-out: Minimum Inhibitory Concentration E. coli MG# WT, 50 µg/mL PAβN, molar conversion in parentheses) was 1.35 µM, the “Minimum Inhibitory Concentration E. coli MG1655 WT” value [1, 17] was 1 µg/mL and the MIC ([2]; broth microdilution, 18 h) was 4 µg/mL. For the same compound, the MIC [2, 18] was 5.4 µM, the “Minimum Inhibitory Concentration E. coli BW25113 ΔdapF” value ([3]; impaired cell-wall mutant) was >64 µg/mL and the “Minimum Inhibitory Concentration E. coli BW25113 ΔdapF” value [3, 18] was “(>86.4 µM)”. The “Minimum Inhibitory Concentration E. coli BW25113 ΔacrB” value ([4]; efflux pump mutant) was >64 µg/mL, the “Minimum Inhibitory Concentration E. coli BW25113 ΔacrB” value [4, 18] was “(>86.4 µM)” and the “Minimum Inhibitory Concentration E. coli BW25113 ΔmrcB” value ([5]; impaired cell-wall mutant) was >64 µg/mL. The “Minimum Inhibitory Concentration E. coli BW25113 ΔmrcB” value [5, 18] was “(>86.4 µM)”, the “Minimum Inhibitory Concentration E. coli BW25113 ΔtolC” value ([6]; efflux pump mutant) was 2 µg/mL and the “MIC change, ΔtolC mutant versus wild-type E. coli BW25113” value ([6]; improvement of MIC in impaired efflux pump mutant) was “above 32 fold”. For the same compound, the “Minimum Inhibitory Concentration E. coli BW25113 ΔtolC” value [6, 18] was “(2.70 µM)”, the “Minimum Inhibitory Concentration E. coli BW25113 ΔsurA” value ([7]; impaired cell-wall mutant) was >64 µg/mL and the “Minimum Inhibitory Concentration E. coli BW25113 ΔsurA” value [7, 18] was “(>86.4 µM)”. For the same compound, the MIC [8, 18] was > 86.4 µM, the MIC ([8]; wild-type) was > 64 µg/mL and the IC50 [9] was 92 ± 10 nM. The MIC ([10]; broth microdilution, 18 h) was > 64 µg/mL, the MIC [10, 18] was > 86.4 µM and the MIC ([11]; ATCC27863, 18 h, read-out: MIC P. aeruginosa ATCC #) was > 64 µg/mL. The MIC ([11]; ATCC27863, read-out: MIC P. aeruginosa ATCC #, molar conversion in parentheses, read-out: MIC P. aeruginosa ATCC 27863) was > 86.4 µM, the MIC ([12]; broth microdilution, 18 h) was > 64 µg/mL and the MIC [12, 18] was > 86.4 µM. For the same compound, the IC50 [13] was 2500 ± 1300 nM, the “Inhibition of topoisomerase IV (in words)” value ([13]; relaxation assay) was “low micromolar” and the MIC ([14]; broth microdilution, 18 h) was > 64 µg/mL. The MIC [14, 18] was > 86.4 µM, the MIC ([15]; Escherichia coli, MG1655, read-out: Minimum Inhibitory Concentration E. coli MG# GyrB R#C) was 2.7 µM and the “Minimum Inhibitory Concentration E. coli MG1655 GyrB R136C” value [15, 17] was 2 µg/mL. The MIC ([16]; Escherichia coli, MG1655, read-out: Minimum Inhibitory Concentration E. coli MG# GyrA S83L, D87N ParC S80I, E84G) was 0.675 µM and the “Minimum Inhibitory Concentration E. coli MG1655 GyrA S83L, D87N ParC S80I, E84G” value [16, 17] was 0.5 µg/mL.
